The text below walks through data of patent US20170210723A1, “MOLECULES HAVING PESTICIDAL UTILITY, AND INTERMEDIATES, COMPOSITIONS, AND PROCESSES, RELATED THERETO” (priority 2016, published 2017).

The structures appear in SMILES notation.

Test [1] has as its system Cabbage Looper (Trichoplusia ni). The test is described as follows: Bioassays on CL, 128-well diet tray assay. The test is classed as in vivo. The settings on record: Trichoplusia ni, 168 h; 50 μg/cm^2 on artificial diet, second instar larvae, five to seven days; read-out: CL % Control (or Mortality) rating. The procedure:
Bioassays on CL were conducted using a 128-well diet tray assay.
One to five second instar CL larvae were placed in each well (3 mL) of the diet tray that had been previously filled with 1 mL of artificial diet to which 50 μg/cm^2 of the test molecule (dissolved in 50 μL of 90:10 acetone-water mixture) had been applied (to each of eight wells) and then allowed to dry. Trays were covered with a clear self-adhesive cover and held at 25° C., 14:10 light-dark for five to seven days. Percent mortality was recorded for the larvae in each well; activity in the eight wells was then averaged. The results are indicated in the table entitled “Table ABC: Biological Results” (See Table Section).
(§1) Bioassays on BAW and CL were conducted according to the procedures outlined in Example A: Bioassays on Beet Armyworm (“BAW”) and Cabbage Looper (“CL”) using the indicated concentrations.

Test [2] concerns Beet Armyworm (Spodoptera exigua). Nature of the test: Bioassays on BAW, 128-well diet tray assay. The test is classed as in vivo. The following applies: Spodoptera exigua, 168 h; 50 μg/cm^2 on artificial diet, second instar larvae, five to seven days; read-out: BAW % Control (or Mortality) rating. The protocol:
Bioassays on BAW were conducted using a 128-well diet tray assay. One to five second instar BAW larvae were placed in each well (3 mL) of the diet tray that had been previously filled with 1 mL of artificial diet to which 50 μg/cm^2 of the test molecule (dissolved in 50 μL of 90:10 acetone-water mixture) had been applied (to each of eight wells) and then allowed to dry. Trays were covered with a clear self-adhesive cover and held at 25° C., 14:10 light-dark for five to seven days. Percent mortality was recorded for the larvae in each well; activity in the eight wells was then averaged. The results are indicated in the table entitled “Table ABC: Biological Results” (See Table Section).
as §1

For orientation: mortality means the share of the test organisms that died. On to `O=C(NCCS(=O)(=O)c1ccc(Cl)cc1)c1ccc(/C=C/C(c2cc(Cl)c(Cl)c(Cl)c2)C(F)(F)F)cc1Br` (stereo not shown) [F4, (E)-2-Bromo-N-(2-((4-chlorophenyl)sulfonyl)ethyl)-4-(4,4,4-trifluoro-3-(3,4,5-trichlorophenyl)but-1-en-1-yl)benzamide], for which the mortality at 50 µg/cm2 in test [1] and in test [2] was 50 to 100% each time.
For the molecule `O=C(NCCS(=O)(=O)CC(F)(F)F)c1ccc(/C=C/C(c2cc(Cl)c(Cl)c(Cl)c2)C(F)(F)F)cc1Br` (stereo not shown) [F10, (E)-2-Bromo-4-(4,4,4-trifluoro-3-(3,4,5-trichlorophenyl)but-1-en-1-yl)-N-(2-((2,2,2-trifluoroethyl)sulfonyl)ethyl)benzamide], the mortality at 50 µg/cm2 in test [1] and in test [2] was 50 to 100% each time.
With `CC(C)[C@H](C[S+]([O-])CC(F)(F)F)NC(=O)c1ccc(/C=C/C(c2cc(Cl)c(Cl)c(Cl)c2)C(F)(F)F)cc1C(F)(F)F` (stereo partly drawn) [F15, N-((2R)-3-methyl-1-((2,2,2-trifluoroethyl)sulfinyl)butan-2-yl)-4-((E)-4,4,4-trifluoro-3-(3,4,5-trichlorophenyl)but-1-en-1-yl)-2-(trifluoromethyl)benzamide], the mortality at 50 µg/cm2 in test [1] and in test [2] was 50 to 100% each time.
With `CC(C)[C@H](CS(=O)(=O)CC(F)(F)F)NC(=O)c1ccc(/C=C/C(c2cc(Cl)c(Cl)c(Cl)c2)C(F)(F)F)cc1C(F)(F)F` (stereo partly drawn) [F16, N—((R)-3-Methyl-1-((2,2,2-trifluoroethyl)sulfonyl)butan-2-yl)-4-((E)-4,4,4-trifluoro-3-(3,4,5-trichlorophenyl)but-1-en-1-yl)-2-(trifluoromethyl)benzamide], the mortality at 50 µg/cm2 in test [1] and in test [2] was 50 to 100% in each case.
Regarding `CC[C@H](CS(=O)(=O)CC(F)(F)F)NC(=O)c1ccc(/C=C/C(c2cc(Cl)c(Cl)c(Cl)c2)C(F)(F)F)cc1C(F)(F)F` (stereo partly drawn) [F17, 4-((E)-4,4,4-Trifluoro-3-(3,4,5-trichlorophenyl)but-1-en-1-yl)-N—((R)-1-((2,2,2-trifluoroethyl)sulfonyl)butan-2-yl)-2-(trifluoromethyl)benzamide], the mortality at 50 µg/cm2 in test [1] and in test [2] was 50 to 100% in each case.
For `CC[C@H](C[S+]([O-])CC(F)(F)F)NC(=O)c1ccc(/C=C/C(c2cc(Cl)c(Cl)c(Cl)c2)C(F)(F)F)cc1C(F)(F)F` (stereo partly drawn) [F18, 4-((E)-4,4,4-Trifluoro-3-(3,4,5-trichlorophenyl)but-1-en-1-yl)-N-((2R)-1-((2,2,2-trifluoroethyl)sulfinyl)butan-2-yl)-2-(trifluoromethyl)benzamide], the mortality at 50 µg/cm2 in test [1] and in test [2] was 50 to 100% each time.
On to `CC[C@H](CS(=O)(=O)CC1CC1(F)F)NC(=O)c1ccc(/C=C/C(c2cc(Cl)c(Cl)c(Cl)c2)C(F)(F)F)cc1Br` (stereo partly drawn) [F19, 2-Bromo-N-((2R)-1-(((2,2-difluorocyclopropyl)methyl)sulfonyl)butan-2-yl)-4-((E)-4,4,4-trifluoro-3-(3,4,5-trichlorophenyl)but-1-en-1-yl)benzamide], for which the mortality at 50 µg/cm2 in test [1] and in test [2] was 50 to 100% each time.
As for `C[C@H](C[S+]([O-])CC(F)(F)F)NC(=O)c1ccc(/C=C/C(c2cc(Cl)c(Cl)c(Cl)c2)C(F)(F)F)cc1C(F)(F)F` (stereo partly drawn) [F23, 4-((E)-4,4,4-Trifluoro-3-(3,4,5-trichlorophenyl)but-1-en-1-yl)-N-((2R)-1-((2,2,2-trifluoroethyl)sulfinyl)propan-2-yl)-2-(trifluoromethyl)benzamide], the mortality at 50 µg/cm2 in test [1] and in test [2] was 50 to 100% each time.
On to `CCO/C(=C\C(c1cc(Cl)c(Cl)c(Cl)c1)C(F)(F)F)c1ccc(C(=O)N[C@H](C)CSCC(F)(F)F)c(C(F)(F)F)c1` (stereo partly drawn) [F29, 4-((Z)-1-ethoxy-4,4,4-trifluoro-3-(3,4,5-trichlorophenyl)but-1-en-1-yl)-N—((R)-1-((2,2,2-trifluoroethyl)thio)propan-2-yl)-2-(trifluoromethyl)benzamide], for which the values for the mortality at 50 µg/cm2 in test [1] and in test [2] were 0% and 50 to 100%, respectively.
For `CCO/C(=C\C(c1cc(Cl)c(Cl)c(Cl)c1)C(F)(F)F)c1ccc(C(=O)N[C@H](C)C[S+]([O-])CC(F)(F)F)c(C(F)(F)F)c1` (stereo partly drawn) [F30, 4-((Z)-1-ethoxy-4,4,4-trifluoro-3-(3,4,5-trichlorophenyl)but-1-en-1-yl)-N-((2R)-1-((2,2,2-trifluoroethyl)sulfinyl)propan-2-yl)-2-(trifluoromethyl)benzamide], in that order: 50 to 100% and 50 to 100%.
The corresponding values for `CO/C(=C\C(c1cc(Cl)c(Cl)c(Cl)c1)C(F)(F)F)c1ccc(C(=O)N[C@H](C)CSCC(F)(F)F)c(C(F)(F)F)c1` (stereo partly drawn) [F31, 4-((Z)-4,4,4-Trifluoro-1-methoxy-3-(3,4,5-trichlorophenyl)but-1-en-1-yl)-N—((R)-1-((2,2,2-trifluoroethyl)thio)propan-2-yl)-2-(trifluoromethyl)benzamide] are 50 to 100% and 50 to 100%.
For `C[C@H](CSCC(F)(F)F)NC(=O)c1ccc(/C=C/C(c2cc(Cl)c(Cl)c(Cl)c2)C(F)(F)F)cc1C(F)F` (stereo partly drawn) [F32, 2-(Difluoromethyl)-4-((E)-4,4,4-trifluoro-3-(3,4,5-trichlorophenyl)but-1-en-1-yl)-N—((R)-1-((2,2,2-trifluoroethyl)thio)propan-2-yl)benzamide], in that order: 50 to 100% and 50 to 100%.
As for `CCO/C(=C/C(c1cc(Cl)c(Cl)c(Cl)c1)C(F)(F)F)c1ccc(C(=O)N[C@H](C)CSCC(F)(F)F)c(C(F)(F)F)c1` (stereo partly drawn) [F33, 4-((E)-1-ethoxy-4,4,4-trifluoro-3-(3,4,5-trichlorophenyl)but-1-en-1-yl)-N—((R)-1-((2,2,2-trifluoroethyl)thio)propan-2-yl)-2-(trifluoromethyl)benzamide], the mortality at 50 µg/cm2 in test [1] and in test [2] was 50 to 100% each time.
Turning to `C[C@H](CS(=O)(=O)CC(F)(F)F)NC(=O)c1ccc(/C=C/C(c2cc(Cl)c(Cl)c(Cl)c2)C(F)(F)F)cc1C(F)F` (stereo partly drawn) [F43, 2-(Difluoromethyl)-4-((E)-4,4,4-trifluoro-3-(3,4,5-trichlorophenyl)but-1-en-1-yl)-N—((R)-1-((2,2,2-trifluoroethyl)sulfonyl)propan-2-yl)benzamide], the mortality at 50 µg/cm2 in test [1] and in test [2] was 50 to 100% in each case.
Take `CC(C)(C[S+]([O-])CC(F)(F)F)NC(=O)c1ccc(/C=C/C(c2cc(Cl)c(Cl)c(Cl)c2)C(F)(F)F)cc1C(F)(F)F` (stereo not shown) [F47, (E)-N-(2-Methyl-1-((2,2,2-trifluoroethyl)sulfinyl)propan-2-yl)-4-(4,4,4-trifluoro-3-(3,4,5-trichlorophenyl)but-1-en-1-yl)-2-(trifluoromethyl)benzamide]: the mortality at 50 µg/cm2 in test [1] and in test [2] was 50 to 100% in each case.
Consider `CCc1cc(/C=C/C(c2cc(Cl)c(Cl)c(Cl)c2)C(F)(F)F)ccc1C(=O)N[C@H](C)C[S+]([O-])CC(F)(F)F` (stereo partly drawn) [F55, 2-Ethyl-4-((E)-4,4,4-trifluoro-3-(3,4,5-trichlorophenyl)but-1-en-1-yl)-N-((2R)-1-((2,2,2-trifluoroethyl)sulfinyl)propan-2-yl)benzamide], for which the mortality at 50 µg/cm2 in test [1] and in test [2] was 50 to 100% throughout.
As for `C[C@H](CSCC(F)(F)F)NC(=O)c1ccc(/C=C/C(c2cc(Cl)c3c(c2)OCO3)C(F)(F)F)cc1C(F)(F)F` (stereo partly drawn) [F75, 4-((E)-3-(7-Chlorobenzo[d][1,3]dioxol-5-yl)-4,4,4-trifluorobut-1-en-1-yl)-N—((R)-1-((2,2,2-trifluoroethyl)thio)propan-2-yl)-2-(trifluoromethyl)benzamide], the mortality at 50 µg/cm2 in test [1] and in test [2] was 50 to 100% in each case.
Turning to `C[C@H](CS(=O)(=O)CC(F)(F)F)NC(=O)c1ccc(/C=C/C(c2cc(Cl)c3c(c2)OCO3)C(F)(F)F)cc1C(F)(F)F` (stereo partly drawn) [F76, 4-((E)-3-(7-Chlorobenzo[d][1,3]dioxol-5-yl)-4,4,4-trifluorobut-1-en-1-yl)-N—((R)-1-((2,2,2-trifluoroethyl)sulfonyl)propan-2-yl)-2-(trifluoromethyl)benzamide], the mortality at 50 µg/cm2 in test [1] and in test [2] was 50 to 100% in each case.
Regarding `CCCS(=O)(=O)C[C@@H](C)NC(=O)c1ccc(/C=C/C(c2cc(Cl)c(Cl)c(Cl)c2)C(F)(F)F)cc1C(F)(F)F` (stereo partly drawn) [F79, N—((R)-1-(Propylsulfonyl)propan-2-yl)-4-((E)-4,4,4-trifluoro-3-(3,4,5-trichlorophenyl)but-1-en-1-yl)-2-(trifluoromethyl)benzamide], the mortality at 50 µg/cm2 in test [1] and in test [2] was 50 to 100% in each case.
Take `CC(C)S(=O)(=O)C[C@@H](C)NC(=O)c1ccc(/C=C/C(c2cc(Cl)c(Cl)c(Cl)c2)C(F)(F)F)cc1C(F)(F)F` (stereo partly drawn) [F80, N—((R)-1-(Isopropylsulfonyl)propan-2-yl)-4-((E)-4,4,4-trifluoro-3-(3,4,5-trichlorophenyl)but-1-en-1-yl)-2-(trifluoromethyl)benzamide]: the mortality at 50 µg/cm2 in test [1] and in test [2] was 50 to 100% in each case.
